Laboratory results reported in patent US20200247815A1, “PYRAZOLYL-CONTAINING TRICYCLIC DERIVATIVE, PREPARATION METHOD THEREFOR AND USE THEREOF” (Jiangsu Hansoh Pharmaceutical Group Co., Ltd., priority 2017, published 2020).
pIC50: −log10 of the molar value.

Legend:
ERK-1 kinase = target: T1, ERK-1 kinase (Homo sapiens, UniProt P27361); test: Inhibition of ERK-1 kinase activity (LANCE Ultra TR-FRET); type: biochemical; details: ERK1 enzyme 0.4 nM, ATP 38.15 μM
T1 construct: purchased Invitrogen PV3311
T1 sequence (P27361 whole entry): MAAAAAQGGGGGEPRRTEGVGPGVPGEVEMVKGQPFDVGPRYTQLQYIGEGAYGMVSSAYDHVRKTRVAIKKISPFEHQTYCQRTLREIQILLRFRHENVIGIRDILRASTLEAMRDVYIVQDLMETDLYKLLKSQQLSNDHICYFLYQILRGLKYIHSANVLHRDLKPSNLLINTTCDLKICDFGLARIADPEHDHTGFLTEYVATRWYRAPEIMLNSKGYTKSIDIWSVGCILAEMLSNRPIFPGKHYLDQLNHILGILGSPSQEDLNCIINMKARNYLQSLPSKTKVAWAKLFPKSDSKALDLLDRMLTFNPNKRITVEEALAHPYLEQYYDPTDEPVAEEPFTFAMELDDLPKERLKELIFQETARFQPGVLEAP
Procedure: (§1) The object of this test example is to determine the inhibition effect of the compound on ERK-1 kinase activity. In vitro ERK-1 kinase analysis was carried out by using LANCE Ultra (Perkin Elmer) method. The reaction (reaction system 10 μL) was conducted by adding 2.5 μL of test compound/DMSO (final 4%, V/V, diluted to 10 concentrations (400 nM to 0.02 nM) using a 1:3 dilution scheme), 5 μL of a mixed solution of ERK1 enzyme (Invitrogen, # PV3311, final concentration: 0.4 nM) and substrate Ulight-MBP peptide (Perkin Elmer, # TRF0109-M, final concentration: 0.5 μM) formulated with a kinase buffer (50 mM Hepes pH 7.4, 10 mM MgCl2, 1 mM EGTA, 0.01% Triton X-100, 2 mM DTT) and 2.5 μL of ATP solution (Invitrogen, # PV3227, final concentration: 38.15 μM) formulated with the same buffer successively to a 384-well plate (Perkin Elmer OPTIPLATE™) and mixing well. The reaction mixture was incubated at room temperature for 60 minutes. The reaction was stopped by adding 1× LANCE Detection buffer (PerkinElmer # CR97-100) diluted with ultra-pure water, mM EDTA (Invitrogen #15575038) and 1 nM Eu-anti-p-MBP (PerkinElmer # TRF0201-M) antibody in 10 μL/well. The plate was incubated at room temperature for 60 minutes. Excitation reading was performed on Synergy H1 Hybird Reader, H1MFD (Biotek) with an excitation wavelength of 320 nm. TR-FRET rate was calculated by dividing the acceptor emission signal (signal value at 665 nM) by the Eu donor emission signal (signal value at 615 nM). The inhibition TR-FRET rate of the well treated by the compound was calculated relative to the Max signal (DMSO control) and Min signal (no enzyme added) control wells on the plate {% inhibition rate=100−[(test compound−Min average)]/(Max average−Min average)×100}. The 10 concentrations of the compound after 4-fold dilution of the reaction system were 100 nM to 0.005 nM. Abs_IC50 value was calculated by using GraphPad prism fits percentage inhibition rate and ten-point concentration data in a 4-parameter non-linear logic formula.

ERK-2 kinase = target: T2, ERK-2 kinase (Homo sapiens, UniProt P28482); test: Inhibition of ERK-2 kinase activity (LANCE Ultra TR-FRET); type: biochemical; details: ERK-2 enzyme 0.08 nM, ATP 38.15 μM
T2 construct: purchased Invitrogen PV3313
T2 sequence (P28482 whole entry): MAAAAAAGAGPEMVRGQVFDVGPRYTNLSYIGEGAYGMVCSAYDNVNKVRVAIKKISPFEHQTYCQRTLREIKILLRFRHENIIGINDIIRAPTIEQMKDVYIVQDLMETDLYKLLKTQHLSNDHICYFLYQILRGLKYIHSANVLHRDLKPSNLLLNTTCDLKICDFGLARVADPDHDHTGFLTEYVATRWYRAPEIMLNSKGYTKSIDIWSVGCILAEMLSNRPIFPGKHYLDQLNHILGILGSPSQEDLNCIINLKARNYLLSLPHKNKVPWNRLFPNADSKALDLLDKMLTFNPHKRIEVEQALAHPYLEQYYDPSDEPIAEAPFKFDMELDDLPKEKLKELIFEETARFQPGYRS
Procedure: as §1, with “ERK-2” for “ERK-1”, “ERK-2” for “ERK1”, “PV3313,” for “PV3311,”, “0.08” for “0.4”, “EGTA” for “EGTA,”, “IX” for “1×”

Structure (SMILES) | pIC50 (ERK-1 kinase) | pIC50 (ERK-2 kinase)
N#C[C@@H](NC(=O)c1nc2cc3c(-c4ccncc4)n[nH]c3cc2[nH]1)c1ccccc1 [Example 34, (S)—N-(cyano(phenyl)methyl)-3-(pyridin-4-yl)-1,7-dihydroimidazo[4,5-f]indazole-6-carboxamide] | 9.10 | 9.47
COc1ccc(-c2n[nH]c3cc4[nH]c(C(=O)N[C@H](C)c5ccccc5)nc4cc23)cn1 [Example 84, (R)-3-(6-methoxypyridin-3-yl)-N-(1-phenylethyl)-1,7-dihydroimidazo[4,5-f]indazole-6-carboxamide] | 8.58 | 9.03
O=C(N[C@H](CNCC(F)F)c1ccccc1)c1nc2cc3c(-c4ccncc4)n[nH]c3cc2[nH]1 [Example 89, (S)—N-(2-((2,2-difluoroethyl)amino)-1-phenylethyl)-3-(pyridin-4-yl)-1,7-dihydroimidazo[4,5-f]indazole-6-carboxamide] | 8.88 | 9.06
C[C@H](CNC(=O)c1nc2cc3c(-c4ccncc4)n[nH]c3cc2[nH]1)c1ccccc1 [Example 67, (S)—N-(2-phenylpropyl)-3-(pyridin-4-yl)-1,7-dihydroimidazo[4,5-f]indazole-6-carboxamide] | 8.84 | 9.16
COC(CNC(=O)c1nc2cc3c(-c4ccncc4)n[nH]c3cc2[nH]1)c1ccccc1 (stereo not shown) [Example 78, N-(2-methoxy-2-phenylethyl)-3-(pyridin-4-yl)-1,7-dihydroimidazo[4,5-f]indazole-6-carboxamide] | 9.19 | 9.68
C[C@@H](NC(=O)c1nc2cc3c(-c4ccnc(F)c4)n[nH]c3cc2[nH]1)c1ccccc1 [Example 37, (R)-3-(2-fluoropyridin-4-yl)-N-(1-phenylethyl)-1,7-dihydroimidazo[4,5-f]indazole-6-carboxamide] | 9.28 | 9.74
O=C(N[C@H](CO)c1ccccc1)c1nc2cc3c(-c4ccncc4)n[nH]c3cc2[nH]1 [Example 20, (S)—N-(2-hydroxy-1-phenylethyl)-3-(pyridin-4-yl)-1,7-dihydroimidazo[4,5-f]indazole-6-carboxamide] | 9.66 | 10.22
C[C@@H](CNC(=O)c1nc2cc3c(-c4ccncc4)n[nH]c3cc2[nH]1)c1ccccc1 [Example 66, (R)—N-(2-phenylpropyl)-3-(pyridin-4-yl)-1,7-dihydroimidazo[4,5-f]indazole-6-carboxamide] | 8.82 | 9.08
O=C(NCc1ccccc1)c1nc2cc3c(-c4ccncc4)n[nH]c3cc2[nH]1 [Example 114, N-benzyl-3-(pyridin-4-yl)-1,7-dihydroimidazo[4,5-f]indazole-6-carboxamide] | 8.54 | 8.97
C[C@@H](NC(=O)c1nc2cc3c(-c4cc[n+]([O-])cc4)n[nH]c3cc2[nH]1)c1ccccc1 [Example 97, (R)-4-(6-((1-phenylethyl)carbamoyl)-1,7-dihydroimidazo[4,5-f]indazol-3-yl)pyridine-N-oxide] | 9.12 | 9.52
O=C(NC(CCO)c1ccccc1)c1nc2cc3c(-c4ccncc4)n[nH]c3cc2[nH]1 (stereo not shown) [Example 71, N-(3-hydroxy-1-phenylpropyl)-3-(pyridin-4-yl)-1,7-dihydroimidazo[4,5-f]indazole-6-carboxamide] | 8.66 | 9.10
C[C@@H](NC(=O)c1nc2cc3c(C4=CCC(=O)CC4)n[nH]c3cc2[nH]1)c1ccccc1 [Example 94, (R)-3-(4-oxocyclohex-1-en-1-yl)-N-(1-phenylethyl)-1,7-dihydroimidazo[4,5-f]indazole-6-carboxamide] | 8.65 | 8.23
COc1ccc(-c2n[nH]c3cc4[nH]c(C(=O)N[C@H](C)c5ccccc5)nc4cc23)cc1 [Example 95, (R)-3-(4-methoxyphenyl)-N-(1-phenylethyl)-1,7-dihydroimidazo[4,5-f]indazole-6-carboxamide] | 8.35 | 8.66
COc1ccc(CNC(=O)c2nc3cc4c(-c5ccncc5)n[nH]c4cc3[nH]2)cc1OC [Example 3, N-(3,4-dimethoxybenzyl)-3-(pyridin-4-yl)-1,7-dihydroimidazo[4,5-f]indazole-6-carboxamide] | 8.26 | 8.40

Continued, values first:

pIC50 (ERK-1 kinase) | pIC50 (ERK-2 kinase) | Structure (SMILES)
8.68 | 9.08 | Cc1ccc([C@@H](C)NC(=O)c2nc3cc4c(-c5ccncc5)n[nH]c4cc3[nH]2)cc1 [Example 6, (R)-3-(pyridin-4-yl)-N-(1-(p-tolyl)ethyl)-1,7-dihydroimidazo[4,5-f]indazole-6-carboxamide]
8.75 | 8.78 | CN(C)C[C@@H](NC(=O)c1nc2cc3c(-c4ccncc4)n[nH]c3cc2[nH]1)c1ccccc1 [Example 90, (S)—N-(2-(dimethylamino)-1-phenylethyl)-3-(pyridin-4-yl)-1,7-dihydroimidazo[4,5-f]indazole-6-carboxamide]
8.64 | 9.00 | C[C@@H](NC(=O)c1nc2cc3c(-c4ccncc4)n[nH]c3cc2[nH]1)c1cccc(C2CC2)c1 [Example 88, (R)—N-(1-(3-cyclopropylphenyl)ethyl)-3-(pyridin-4-yl)-1,7-dihydroimidazo[4,5-f]indazole-6-carboxamide]
8.02 | 8.29 | C[C@@H](NC(=O)c1nc2cc3c(-c4ccncc4)n[nH]c3cc2[nH]1)c1ccc([N+](=O)[O-])cc1 [Example 14, (R)—N-(1-(4-nitrophenyl)ethyl)-3-(pyridin-4-yl)-1,7-dihydroimidazo[4,5-f]indazole-6-carboxamide]
8.19 | 8.57 | C[C@@H](NC(=O)c1nc2cc3c(-c4ccncc4)n[nH]c3cc2[nH]1)c1ccc(Br)cc1 [Example 15, (R)—N-(1-(4-bromophenyl)ethyl)-3-(pyridin-4-yl)-1,7-dihydroimidazo[4,5-f]indazole-6-carboxamide]
9.00 | 9.14 | C[C@@H](NC(=O)c1nc2cc3c(-c4ccncc4)n[nH]c3cc2[nH]1)c1cccc(C(F)(F)F)c1 [Example 16, (R)-3-(pyridin-4-yl)-N-(1-(3-(trifluoromethyl)phenyl)ethyl)-1,7-dihydroimidazo[4,5-f]indazole-6-carboxamide]
8.53 | 8.54 | C[C@@H](NC(=O)c1nc2cc3c(-c4ccncc4)n[nH]c3cc2[nH]1)c1ccc(F)c(Cl)c1 [Example 63, (R)—N-(1-(3-chloro-4-fluorophenyl)ethyl)-3-(pyridin-4-yl)-1,7-dihydroimidazo[4,5-f]indazole-6-carboxamide]
9.02 | 9.18 | Cc1cccc(C(C)NC(=O)c2nc3cc4c(-c5ccncc5)n[nH]c4cc3[nH]2)n1 (stereo not shown) [Example 44, N-(1-(6-methylpyridin-2-yl)ethyl)-3-(pyridin-4-yl)-1,7-dihydroimidazo[4,5-f]indazole-6-carboxamide]
9.19 | 9.54 | CC(NC(=O)c1nc2cc3c(-c4ccncc4)n[nH]c3cc2[nH]1)c1ccccc1 (stereo not shown) [Example 11, N-(1-phenylethyl)-3-(pyridin-4-yl)-1,7-dihydroimidazo[4,5-f]indazole-6-carboxamide]
